# Measurements taken from publication PMC10423278, “Delivered complementation in planta (DCIP) enables measurement of peptide-mediated protein delivery efficiency in plants” (Communications Biology, 2023).
# No end group written: not given here.
# How the values were obtained:
# [1] = R9-GFP11 dot blot assay (anti-GFP11) of leaf lysates, tissue stability; assay type: in vivo, Nicotiana benthamiana; conditions: 500 μM in water infiltrated, in situ, 0, 4, 8, 24 h; 12 mm disc lysed in RIPA, dot blot anti-GFP11, N = 6
# Description: We infiltrated leaves with 500 μM R9-GFP11 and left the plants to incubate in situ. A higher concentration of R9-GFP11 was chosen to facilitate detection by immunoblotting. After 0, 4, 8, and 24 h of incubation, a single 12 mm leaf disc was harvested and lysed for each treatment. Two microliters of lysates were then spotted onto nitrocellulose for dot blot analysis[42] using a primary antibody raised against GFP11. […] The reduction at 24 h in the sfGFP signal is indicative of the combined intracellular and extracellular turnover of GFP11 becoming higher than the rate of delivery and complementation. […] We hypothesize that similar dynamics from apoplastic proteases[45] and intracellular degradation are at play in plants.
# The third or fourth leaf of 4–5-week-old wild-type N. benthamiana was infiltrated with 500 μM R9-GFP11 in water using a needless syringe. Infiltrations were staggered such that all treatments could be harvested simultaneously for 0, 4, 8, and 24 h time points. Each treatment was performed on a separate plant and the experiment was repeated thrice. A 12 mm leaf disc was excised for each treatment using a leaf punch and flash frozen in liquid nitrogen before grinding and lysis in 20 μL RIPA buffer with 1x plant protease inhibitor cocktail (Sigma-Aldrich: P9599). The lysates were then clarified by centrifugation at 21,000 × g for 30 min. […]
# [2] = system: DCIP-expressing leaves (intact); assay: DCIP in attached, intact leaves incubated in situ; assay type: cell-based, Nicotiana benthamiana
# Description: We next confirmed that DCIP is capable of detecting successful delivery in attached, intact leaves instead of leaf discs. DCIP-expressing leaves were thus infiltrated with 100 μM R9-GFP11 solutions and allowed to incubate in situ. During this time, the infiltrated liquid would dry, rendering the effective treatment concentration difficult to compare to the above leaf disc assays. We then assessed the amount of sfGFP complementation at 4 or 24 h post infiltration with 100 μM R9-GFP11 (Fig. 4a). […] We also tested whether or not 24 h-treated cells were still competent to R9-mediated delivery; we retreated a previously 24H treated leaf with 100 μM R9-GFP11, and imaged 4 h post re-treatment. […] The limited fluorescence recovery with re-treatment could be due to an induced stress response that decreases the cell wall permeability.
# Three days after agroinfiltration, DCIP-expressing leaves were infiltrated with the treatment solutions. Unless otherwise stated, an 8 mm punch was then excised from the infiltrated area and plated, abaxial side up, onto ½ MS pH 5.7 agar plates. The plates were then left to incubate under ambient conditions for 4–5 h before imaging. For cold temperature treatment, after infiltration with ice-cold solutions of R9-GFP11 and disc excision, the leaf discs were plated onto ice-cold agar and immediately transferred to a 4 °C refrigerator for incubation. After incubation, the agar plates with leaf discs were kept on ice until the moment of imaging. For in situ incubation, leaves were simply infiltrated and the plant was returned to the growing chamber for incubation. […]
# Excised leaf discs were imaged on a Zeiss LSM880 laser scanning confocal microscope. Images for semi-quantitative analysis were collected using a ×20/1.0NA Plan-apochromat water immersion objective and larger field-of-views were collected using a ×5 objective. […] For quantification experiments, z-stacks were acquired with the imaging depth set to capture the epidermal layer down to the point where mCherry nuclei could no longer be detected. z-stacks from four fields of view were acquired for every treatment condition. Quantitative image analysis and downstream processing was performed using Cell Profiler 3.0. […] Cell Profiler was then used to quantify the number, mCherry intensity, GFP intensity, and red (mCherry)/green (sfGFP) ratio of the projected nuclei.
# Data obtained from Cell Profiler was processed using a script written in Python 3.9. Using the Cell Profiler data, GFP positive nuclei were counted using a Python script by setting a threshold defined as a one-tailed 99% confidence interval above the mean green/red ratio in the untreated control or water infiltration control of each experiment. […]
sequence,measurement,setting,value
RRRRRRRRRGSGSRDHMVLHEYVNAAGIT [R9-GFP11],time until recovered/tissue-localized peptide returns to level of non-treated control (clearance from leaf tissue),[1],≤ 24 h
same,time to disappearance of GFP complementation (DCIP) signal,"[2]; 100 μM, intact leaves in situ",≤ 24 h
same,"percentage of sfGFP positive cells, 4 h post infiltration","[2]; 100 μM, intact leaves in situ, N = 5",relatively high percentage of sfGFP positive cells
same,"percentage of sfGFP-positive cells, 24 h post infiltration","[2]; 100 μM, intact leaves in situ, N = 5, not statistically different from non-treated control",returned nearly to baseline
same,delivery after re-treatment of a 24 h treated leaf,"[2]; re-treated with 100 μM, imaged 4 h post re-treatment",some instances of successful delivery
